Assay results as given in patent US20130072523A1, “ANALOGUES FOR THE TREATMENT OR PREVENTION OF FLAVIVIRUS INFECTIONS” (VERTEX PHARMACEUTICALS INCORPORATED, priority 2009, published 2013).

Tested on: HCV 1b genotype
Test: Cell-based luciferase reporter HCV (Ib) RNA replication assay (Huh-ET replicon cells)
Conditions: Hepatitis C virus, 96 h; HCV 1b genotype replicon, 4 days incubation, luciferase readout
Source text: Cell-Based Luciferase Reporter HCV (Ib) RNA Replication Assay Cell Culture
Replicon cell lines Huh-5.2 are derived from the Huh-7 hepatocarcinoma cell line are maintained in culture as generally described in Krieger, N; Lohmann, V; Bartenschlager, R. Enhancement of hepatitis C virus RNA replication by cell culture-adaptive mutations. J. Virol. 2001, 75, 4614-4624. The Huh-5.2 cells contain the highly cell culture-adapted replicon I389 Luc-ubi-neo/NS3-375.1 construct that carries, in addition to the neomycin gene, an integrated copy to the firefly luciferase gene (Krieger, N; Lohmann, V; Bartenschlager, R. Enhancement of hepatitis C virus RNA replication by cell culture-adaptive mutations. J. Virol. 2001, 75, 4614-4624). This cell line allows measurement of HCV RNA replication and translation by measuring luciferase activity. It has been previously shown that the luciferase activity tightly follows the replicon RNA level in these cells (Krieger, N; Lohmann, V; Bartenschlager, R. Enhancement of hepatitis C virus RNA replication by cell culture-adaptive mutations. J. Virol. 2001, 75, 4614-4624). The Huh-ET cell line has the same features as those mentioned for Huh-5.2 cell line, except that ET cells are more robust and contain an adaptative mutation in the HCV NS4B gene instead of NS5A. Both cell lines are maintained in cultures at a sub-confluent level (<85%) as the level of replicon RNA is highest in actively proliferating cells. The culture media used for cell passaging consist of DMEM (Gibco BRL Laboratories, Mississauga, ON, Canada) supplemented with 10% foetal bovine serum with 1% penicilin/streptomycin, 1% glutamine, 1% sodium pyruvate, 1% non-essential amino acids, and 180 μg/ml of G418 final concentration. Cells are incubated at 37° C., in an atmosphere of 5% CO2 and passaged twice a week to maintain sub-confluence.
Approximately 3000 viable Huh-ET cells (100 μl) are plated per well in a white opaque 96-well microtiter plate. The cell culture media used for the assay is the same as described above except that it contains no G418 and no phenol red. After an incubation period of 3-4 hours at 37° C. in a 5% CO2 incubator, compounds (100 μl) are added at various concentrations. Cells are then further incubated for 4 days at 37° C. in a 5% CO2 incubator. Thereafter, the culture media is removed and cells are lysed by the addition of 95 μL of the luciferase buffer (luciferin substrate in buffered detergent). Cell lysates are incubated at room temperature and protected from direct light for at least 10 minutes. Plates are read for luciferase counts using a luminometer (Wallac MicroBeta Trilux, Perkin Elmer™, MA, USA).
The 50% inhibitory concentrations (IC50s) for inhibitory effect are determined from dose response curves using eleven concentrations per compound in duplicate. Curves are fitted to data points using nonlinear regression analysis, and IC50s are interpolated from the resulting curve using GraphPad Prism software, version 2.0 (GraphPad Software Inc., San Diego, Calif., USA).
EC50 ranges are presented in micromolar as follows: μM+++<=0.005<++<=5.0<+.

| Compound | IC50 |
| --- | --- |
| COC(=O)N[C@H](C(=O)N1CCC[C@H]1c1ncc(C#Cc2ccc(C#Cc3cnc([C@@H]4CCCN4C(=O)[C@@H](NC(=O)OC)C(C)C)[nH]3)c3c2OCO3)[nH]1)C(C)C [Compound 2] | ≤ 5 nM |
| COC(=O)N[C@H](C(=O)N1CCC[C@H]1c1ncc(C#Cc2ccc(C#Cc3cnc([C@@H]4CCCN4C(=O)[C@@H](NC(=O)OC)C(C)C)[nH]3)s2)[nH]1)C(C)C [Compound 3] | ≤ 5 nM |
| [2H]c1c([2H])c(C#Cc2cnc([C@@H]3C[C@H](C)CN3C(=O)[C@@H](NC(=O)OC)C(C)C)[nH]2)c([2H])c([2H])c1C#Cc1cnc([C@@H]2C[C@H](C)CN2C(=O)[C@@H](NC(=O)OC)C(C)C)[nH]1 [Compound 5] | ≤ 5 nM |
| COC(=O)N[C@H](C(=O)N1C[C@@H](C)C[C@H]1c1nc(C#Cc2ccc3cc(C#Cc4c[nH]c([C@@H]5C[C@H](C)CN5C(=O)[C@@H](NC(=O)OC)C(C)C)n4)ccc3c2)c[nH]1)C(C)C [Compound 6] | ≤ 5 nM |
| COC(=O)N[C@H](C(=O)N1C[C@@H](C)C[C@H]1c1nc(C#Cc2ccc(C#Cc3c[nH]c([C@@H]4C[C@H](C)CN4C(=O)[C@@H](NC(=O)OC)[C@@H](C)OC)n3)cc2)c[nH]1)[C@@H](C)OC [Compound 7] | ≤ 5 nM |
| COC(=O)N[C@H](C(=O)N1C[C@@H](C)C[C@H]1c1ncc(C#Cc2cc(C)c(C#Cc3cnc([C@@H]4C[C@H](C)CN4C(=O)[C@@H](NC(=O)OC)C(C)C)[nH]3)cc2C)[nH]1)C(C)C [Compound 8] | ≤ 5 nM |
| COC(=O)N[C@H](C(=O)N1C[C@H](C)C[C@H]1c1nc(C#Cc2ccc(C#Cc3c[nH]c([C@@H]4C[C@@H](C)CN4C(=O)[C@@H](NC(=O)OC)C(C)C)n3)cc2)c[nH]1)C(C)C [Compound 9] | ≤ 5 nM |
| COC(=O)N[C@H](C(=O)N1C[C@@H](C)C[C@H]1c1ncc(C#Cc2cc3sc(C#Cc4cnc([C@@H]5C[C@H](C)CN5C(=O)[C@@H](NC(=O)OC)C(C)C)[nH]4)cc3s2)[nH]1)C(C)C [Compound 10] | ≤ 5 nM |
| COC(=O)N(C)[C@H](C(=O)N1C[C@@H](C)C[C@H]1c1ncc(C#Cc2ccc(C#Cc3cnc([C@@H]4C[C@H](C)CN4C(=O)[C@H](C(C)C)N(C)C(=O)OC)[nH]3)cc2)[nH]1)C(C)C [Compound 11] | ≤ 5 nM |
| COC(=O)N[C@H](C(=O)N1C[C@@H](C)C[C@H]1c1ncc(C#Cc2ccc(C#Cc3cnc([C@@H]4C[C@H](C)CN4C(=O)[C@H](C(C)C)N(C)C(=O)OC)[nH]3)cc2)[nH]1)C(C)C [Compound 12] | ≤ 5 nM |
| COC(=O)N[C@H](C(=O)N1CCC[C@H]1c1nc(C#Cc2ccc(C#Cc3c[nH]c([C@@H]4CCCN4C(=O)[C@@H](NC(=O)OC)C(C)C)n3)c3ocnc23)c[nH]1)C(C)C [Compound 13] | ≤ 5 nM |
| COC(=O)N[C@H](C(=O)N1CCC[C@H]1c1nc(C#Cc2cc3sc(C#Cc4c[nH]c([C@@H]5CCCN5C(=O)[C@@H](NC(=O)OC)C(C)C)n4)cc3s2)c[nH]1)C(C)C [Compound 14] | ≤ 5 nM |
| COC(=O)N[C@H](C(=O)N1CCC[C@H]1c1nc(C#CC#Cc2c[nH]c([C@@H]3CCCN3C(=O)[C@@H](NC(=O)OC)C(C)C)n2)c[nH]1)C(C)C [Compound 15] | 5 to 5000 nM |
| COC(=O)N[C@H](C(=O)N1C[C@@H](C)C[C@H]1c1nc(C#Cc2ccc(C#Cc3c[nH]c([C@@H]4C[C@H](C)CN4C(=O)[C@@H](NC(=O)OC)C(C)C)n3)c(C)c2)c[nH]1)C(C)C [Compound 16] | ≤ 5 nM |
| COC(=O)N[C@H](C(=O)N1C[C@@H](C)C[C@H]1c1nc(CCc2ccc(CCc3c[nH]c([C@@H]4C[C@H](C)CN4C(=O)[C@@H](NC(=O)OC)C(C)C)n3)cc2)c[nH]1)C(C)C [Compound 17] | 5 to 5000 nM |
| COC(=O)N[C@H](C(=O)N1C[C@@H](C)C[C@H]1c1nc(C)c(C#Cc2ccc(C#Cc3[nH]c([C@@H]4C[C@H](C)CN4C(=O)[C@@H](NC(=O)OC)C(C)C)nc3C)cc2)[nH]1)C(C)C [Compound 18] | ≤ 5 nM |
| COC(=O)N[C@H](C(=O)N1CCC[C@H]1c1nc(C)c(C#Cc2ccc(C#Cc3[nH]c([C@@H]4CCCN4C(=O)[C@@H](NC(=O)OC)C(C)C)nc3C)cc2)[nH]1)C(C)C [Compound 19] | ≤ 5 nM |

| Compound | IC50 |
| --- | --- |
| COC(=O)N[C@H](C(=O)N1C[C@@H](C)C[C@H]1c1ncc(C#Cc2ccc(C#Cc3[nH]c([C@@H]4C[C@H](C)CN4C(=O)[C@@H](NC(=O)OC)C(C)C)nc3I)cc2)[nH]1)C(C)C [Compound 20] | ≤ 5 nM |
| COC(=O)N[C@H](C(=O)N1C[C@@H](C)C[C@H]1c1nc(I)c(C#Cc2ccc(C#Cc3[nH]c([C@@H]4C[C@H](C)CN4C(=O)[C@@H](NC(=O)OC)C(C)C)nc3I)cc2)[nH]1)C(C)C [Compound 21] | ≤ 5 nM |
| C[C@H]1C[C@@H](c2ncc(C#Cc3ccc(C#Cc4cnc([C@@H]5C[C@H](C)CN5C(=O)OC(C)(C)C)[nH]4)cc3)[nH]2)N(C(=O)OC(C)(C)C)C1 [Compound 23] | 5 to 5000 nM |
| C[C@@H]1CN[C@H](c2ncc(C#Cc3ccc(C#Cc4cnc([C@@H]5C[C@H](C)CN5)[nH]4)cc3)[nH]2)C1 [Compound 24] | 5 to 5000 nM |
| COC(=O)N[C@H](C(=O)N1C[C@@H](C)C[C@H]1c1nc(-c2cc3sc(-c4c[nH]c([C@@H]5C[C@H](C)CN5C(=O)[C@@H](NC(=O)OC)C(C)C)n4)cc3s2)c[nH]1)C(C)C [Compound 26] | ≤ 5 nM |
| COC(=O)N[C@H](C(=O)N1C[C@@H](C)C[C@@H]1c1ncc(C#Cc2ccc(C#Cc3cnc([C@@H]4C[C@@H](C)CN4C(=O)[C@@H](NC(=O)OC)C(C)C)[nH]3)cc2)[nH]1)C(C)C [Compound 27] | 5 to 5000 nM |
| COC(=O)N[C@H](C(=O)N1C[C@H](C)C[C@H]1c1nc(C)c(C#Cc2ccc(C#Cc3[nH]c([C@@H]4C[C@@H](C)CN4C(=O)[C@@H](NC(=O)OC)C(C)C)nc3C)cc2)[nH]1)C(C)C [Compound 28] | ≤ 5 nM |
| COC(=O)N[C@H](C(=O)N1C[C@@H](C)C[C@H]1c1nc(C)c(C#Cc2cc(F)c(C#Cc3[nH]c([C@@H]4C[C@H](C)CN4C(=O)[C@@H](NC(=O)OC)C(C)C)nc3C)cc2F)[nH]1)C(C)C [Compound 29] | ≤ 5 nM |
| COC(=O)N[C@H](C(=O)N1C[C@@H](C)C[C@H]1c1nc(C)c(C#Cc2ccc(C#Cc3[nH]c([C@@H]4C[C@H](C)CN4C(=O)[C@@H](NC(=O)OC)C(C)C)nc3C)c(F)c2)[nH]1)C(C)C [Compound 31] | ≤ 5 nM |
| COC(=O)N[C@@H](C(=O)N1C[C@@H](C)C[C@H]1c1ncc(C#Cc2ccc(C#Cc3cnc([C@@H]4C[C@H](C)CN4C(=O)[C@H](NC(=O)OC)C(C)C)[nH]3)cc2)[nH]1)C(C)C [Compound 32] | 5 to 5000 nM |
| COC(=O)N[C@H](C(=O)N1C[C@@H](C)C[C@H]1c1ncc(C#Cc2ccc(C#Cc3cnc([C@@H]4C[C@H](C)CN4C(=O)[C@H](NC(=O)OC)C(C)C)[nH]3)cc2)[nH]1)C(C)C [Compound 33] | ≤ 5 nM |
| COC(=O)N[C@H](C(=O)N1C[C@@H](C)C[C@H]1c1ncc(C#Cc2ccc(C#Cc3cnc([C@@H]4C[C@H](C)CN4C(=O)[C@@H](NC(=O)OC)C(C)C)[nH]3)c(F)c2)[nH]1)C(C)C [Compound 36] | ≤ 5 nM |
| COC(=O)N[C@H](C(=O)N1C[C@@H](C)C[C@H]1c1nc(C)c(C#Cc2ccc3cc(C#Cc4[nH]c([C@@H]5C[C@H](C)CN5C(=O)[C@@H](NC(=O)OC)C(C)C)nc4C)ccc3c2)[nH]1)C(C)C [Compound 37] | ≤ 5 nM |
| COC(=O)N[C@H](C(=O)N1C[C@H](C)C[C@H]1c1ncc(C#Cc2ccc(C#Cc3cnc([C@@H]4C[C@H](C)CN4C(=O)[C@@H](NC(=O)OC)C(C)C)[nH]3)cc2)[nH]1)C(C)C [Compound 38] | ≤ 5 nM |
| COC(=O)N[C@H](C(=O)N1C[C@@H](C)C[C@H]1c1ncc(C#Cc2ccc(C#Cc3cnc([C@@H]4C[C@H](C)CN4)[nH]3)cc2)[nH]1)C(C)C [Compound 39] | 5 to 5000 nM |
| COC(=O)N[C@H](C(=O)N1C[C@@H](C)C[C@H]1c1ncc(C#Cc2ccc(C#Cc3cnc([C@@H]4C[C@H](C)CN4C(=O)[C@@H](NC(=O)OC)C(C)C)[nH]3)c3nsnc23)[nH]1)C(C)C [Compound 40] | ≤ 5 nM |
| CC[C@H]1C[C@@H](c2ncc(C#Cc3ccc(C#Cc4cnc([C@@H]5C[C@H](CC)CN5C(=O)[C@@H](NC(=O)OC)C(C)C)[nH]4)cc3)[nH]2)N(C(=O)[C@@H](NC(=O)OC)C(C)C)C1 [Compound 41] | ≤ 5 nM |
